Experimental findings from ChEMBL document CHEMBL2346556, “Synthesis, receptor binding and activity of iso and azakainoids” (Bioorg Med Chem Lett, 2013) are described below.

Experiment [1] deals with Aplysia californica. The experiment in a line: Agonist activity at glutamate receptor in Aplysia californica buccal S cluster neurons assessed as membrane depolarization at 1 mM by patch clamp technique.
Experiment [2] is filed under the species Rattus norvegicus. The experiment can be described thus: Displacement of [3H]NMDA from rat brain unspecified glutamate receptor by competitive binding assay. (In general: In a radioligand displacement assay an active substance lowers the binding of a labelled ligand.)
The species entered for experiment [3] is Rattus norvegicus. The experiment can be described thus: Displacement of [3H]AMPA from rat brain unspecified glutamate receptor by competitive binding assay.
Experiment [4] is described as follows: (§1) Displacement of [3H]glutamic acid from rat brain unspecified glutamate receptor by competitive binding assay.
In experiment [5] the test system is Aplysia californica. The experiment in a line: Agonist activity at glutamate receptor in Aplysia californica buccal S cluster neurons assessed as receptor non-desensitization at 30 mV holding potential at 1 mM by patch clamp technique. (The patch-clamp technique gives a direct electrical read-out from membranes.)
The species entered for experiment [6] is Rattus norvegicus. The experiment can be described thus: Displacement of [3H]kainic acid from rat brain unspecified glutamate receptor by competitive binding assay.
For experiment [7], the species on record is Rattus norvegicus. The description is as §1.

Calls of active or inactive are those of the source. The calls are words filed in the database; no cut-off is given here.

By EC50 is commonly meant the concentration giving half of the maximal effect. A lower EC50 goes with a more potent agent. Regarding `O=C(O)C[C@H]1CNN[C@@H]1C(=O)O` (relative stereo), the result in the experiment with Aplysia californica [1] and with Aplysia californica [5] was Active. Moreover, the result in the experiment listed under Rattus norvegicus [2], in the experiment listed under Rattus norvegicus [3] and in the experiment filed under Rattus norvegicus [6] was inactive. Moreover, the EC50 in experiment [4] stood at 12 µM.

For `O=C(O)C[C@H]1CCN[C@@H]1C(=O)O` (relative stereo), the result in the experiment listed under Rattus norvegicus [2], in the experiment listed under Rattus norvegicus [3], in the experiment listed under Rattus norvegicus [7] and in the experiment listed under Rattus norvegicus [6] was inactive.

Consider `O=C(O)C[C@H]1CNC[C@@H]1C(=O)O` (relative stereo), for which the result in the experiment filed under Rattus norvegicus [2], in the experiment filed under Rattus norvegicus [3], in the experiment listed under Rattus norvegicus [7] and in the experiment listed under Rattus norvegicus [6] was inactive.
